Test results published in publication PMC8222254, “Self-assembly of an anion receptor with metal-dependent kinase inhibition and potent in vitro anti-cancer properties” (Nature Communications, 2021).
“And” between values parts separate entries of the source, which are not always exact repeats. Identical values can stand only once.

Key:
Assay in all cases: Kinase inhibition screen, cell-free 33P ATP assay at 10 μM
Assay type in all cases: biochemical
[1] = target: T1, 140 purified human kinases (Homo sapiens, UniProt O00141)
T1 sequence (O00141 1-431): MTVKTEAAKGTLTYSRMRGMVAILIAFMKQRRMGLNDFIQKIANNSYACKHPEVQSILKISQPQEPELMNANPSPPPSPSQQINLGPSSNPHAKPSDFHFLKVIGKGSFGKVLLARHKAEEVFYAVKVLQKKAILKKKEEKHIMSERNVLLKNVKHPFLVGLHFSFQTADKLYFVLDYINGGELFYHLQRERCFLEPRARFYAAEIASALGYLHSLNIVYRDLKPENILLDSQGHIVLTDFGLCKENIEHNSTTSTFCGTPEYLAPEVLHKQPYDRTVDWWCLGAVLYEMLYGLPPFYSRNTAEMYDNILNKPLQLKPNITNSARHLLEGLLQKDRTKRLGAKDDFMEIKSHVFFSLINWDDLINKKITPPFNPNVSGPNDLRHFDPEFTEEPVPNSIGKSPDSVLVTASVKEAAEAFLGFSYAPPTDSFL
Summary of the method: (§1)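 Each complex tested in duplicate at 10 μM; cell-free radiometric assay using ^33P ATP on purified enzymes. Hits mapped by HGNC symbol onto the kinome tree.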

[2] = target: T2, 140 purified human kinases (Homo sapiens, UniProt O14757)
T2 sequence (O14757 1-476): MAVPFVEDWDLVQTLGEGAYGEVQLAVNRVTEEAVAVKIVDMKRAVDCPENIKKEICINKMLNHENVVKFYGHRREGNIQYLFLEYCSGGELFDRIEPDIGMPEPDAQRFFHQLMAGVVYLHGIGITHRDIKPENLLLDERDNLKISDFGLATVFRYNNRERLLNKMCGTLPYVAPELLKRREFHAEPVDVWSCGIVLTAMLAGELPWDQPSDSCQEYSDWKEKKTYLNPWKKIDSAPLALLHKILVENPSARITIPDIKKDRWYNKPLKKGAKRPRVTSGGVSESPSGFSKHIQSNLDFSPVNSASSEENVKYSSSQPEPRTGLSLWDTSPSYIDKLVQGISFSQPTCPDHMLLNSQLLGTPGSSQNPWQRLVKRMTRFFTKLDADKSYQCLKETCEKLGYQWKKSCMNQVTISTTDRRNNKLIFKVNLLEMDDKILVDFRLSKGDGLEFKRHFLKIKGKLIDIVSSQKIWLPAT
Summary of the method: as §1

[3] = target: T3, 140 purified human kinases (Homo sapiens, UniProt O14920); settings: IKKb; for % Activity inhibition Mean / % Activity inhibition Run 1 / % Activity inhibition Run 2 / % Activity remaining Run 1 / % Activity remaining Run 2: 10 µM
T3 sequence (O14920 1-756): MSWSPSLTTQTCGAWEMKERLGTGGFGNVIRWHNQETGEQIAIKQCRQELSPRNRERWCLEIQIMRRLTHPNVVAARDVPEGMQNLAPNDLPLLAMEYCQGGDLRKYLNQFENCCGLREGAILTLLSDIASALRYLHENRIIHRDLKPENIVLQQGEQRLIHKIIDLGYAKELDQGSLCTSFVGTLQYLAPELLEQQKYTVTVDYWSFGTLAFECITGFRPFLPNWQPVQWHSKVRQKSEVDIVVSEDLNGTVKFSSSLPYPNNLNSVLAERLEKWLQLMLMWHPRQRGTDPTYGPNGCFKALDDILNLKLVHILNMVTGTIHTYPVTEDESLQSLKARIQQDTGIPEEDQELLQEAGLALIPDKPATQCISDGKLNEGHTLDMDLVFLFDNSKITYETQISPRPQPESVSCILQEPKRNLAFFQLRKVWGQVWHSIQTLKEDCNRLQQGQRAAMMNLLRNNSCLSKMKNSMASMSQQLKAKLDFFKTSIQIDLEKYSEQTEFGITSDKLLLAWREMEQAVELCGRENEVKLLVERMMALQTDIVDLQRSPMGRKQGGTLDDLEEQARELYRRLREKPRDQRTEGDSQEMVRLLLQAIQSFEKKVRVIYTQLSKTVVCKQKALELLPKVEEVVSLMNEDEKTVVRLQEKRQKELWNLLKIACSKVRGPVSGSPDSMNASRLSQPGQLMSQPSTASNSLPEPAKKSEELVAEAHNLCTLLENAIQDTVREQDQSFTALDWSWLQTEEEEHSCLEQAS
Summary of the method: as §1

[4] = target: 140 purified human kinases (Homo sapiens, UniProt P23443)
Chain of 140 purified human kinases (Homo sapiens, UniProt P23443) (P23443 whole entry): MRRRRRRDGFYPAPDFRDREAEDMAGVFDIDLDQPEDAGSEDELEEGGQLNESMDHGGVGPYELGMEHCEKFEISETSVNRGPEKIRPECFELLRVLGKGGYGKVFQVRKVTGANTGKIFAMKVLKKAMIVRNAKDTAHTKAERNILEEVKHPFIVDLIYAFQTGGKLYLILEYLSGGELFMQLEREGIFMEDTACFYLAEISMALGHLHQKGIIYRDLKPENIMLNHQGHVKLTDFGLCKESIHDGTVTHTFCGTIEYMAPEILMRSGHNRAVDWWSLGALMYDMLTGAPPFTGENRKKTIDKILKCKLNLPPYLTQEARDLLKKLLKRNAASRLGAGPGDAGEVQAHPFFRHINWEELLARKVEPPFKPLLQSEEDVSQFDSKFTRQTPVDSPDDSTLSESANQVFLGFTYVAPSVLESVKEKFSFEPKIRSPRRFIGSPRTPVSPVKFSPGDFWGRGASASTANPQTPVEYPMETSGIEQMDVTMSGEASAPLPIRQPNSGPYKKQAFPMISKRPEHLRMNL
Summary of the method: as §1

[5] = target: 140 purified human kinases (Homo sapiens, UniProt P51812)
Chain of 140 purified human kinases (Homo sapiens, UniProt P51812) (P51812 whole entry): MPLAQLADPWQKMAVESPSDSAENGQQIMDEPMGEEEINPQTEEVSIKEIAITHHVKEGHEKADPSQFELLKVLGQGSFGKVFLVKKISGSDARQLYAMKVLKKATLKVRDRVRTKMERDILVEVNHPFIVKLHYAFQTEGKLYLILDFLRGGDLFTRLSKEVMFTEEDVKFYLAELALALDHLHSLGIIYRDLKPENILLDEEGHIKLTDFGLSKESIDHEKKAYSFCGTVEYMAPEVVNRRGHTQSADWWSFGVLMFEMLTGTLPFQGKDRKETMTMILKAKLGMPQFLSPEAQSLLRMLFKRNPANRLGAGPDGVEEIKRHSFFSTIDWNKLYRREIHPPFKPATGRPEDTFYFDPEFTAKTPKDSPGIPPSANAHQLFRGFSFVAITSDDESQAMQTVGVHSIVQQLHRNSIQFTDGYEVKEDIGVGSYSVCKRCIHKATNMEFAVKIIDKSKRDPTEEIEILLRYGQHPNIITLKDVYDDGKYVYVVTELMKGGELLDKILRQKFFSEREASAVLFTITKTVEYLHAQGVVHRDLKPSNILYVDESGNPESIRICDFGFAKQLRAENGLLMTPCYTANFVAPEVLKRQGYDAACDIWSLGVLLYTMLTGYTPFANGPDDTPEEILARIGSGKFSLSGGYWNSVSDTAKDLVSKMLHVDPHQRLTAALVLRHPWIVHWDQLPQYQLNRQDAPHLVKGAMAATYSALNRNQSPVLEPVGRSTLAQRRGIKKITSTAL
Summary of the method: as §1

[6] = target: 140 purified human kinases (Homo sapiens, UniProt P80192)
Chain of 140 purified human kinases (Homo sapiens, UniProt P80192) (P80192 whole entry): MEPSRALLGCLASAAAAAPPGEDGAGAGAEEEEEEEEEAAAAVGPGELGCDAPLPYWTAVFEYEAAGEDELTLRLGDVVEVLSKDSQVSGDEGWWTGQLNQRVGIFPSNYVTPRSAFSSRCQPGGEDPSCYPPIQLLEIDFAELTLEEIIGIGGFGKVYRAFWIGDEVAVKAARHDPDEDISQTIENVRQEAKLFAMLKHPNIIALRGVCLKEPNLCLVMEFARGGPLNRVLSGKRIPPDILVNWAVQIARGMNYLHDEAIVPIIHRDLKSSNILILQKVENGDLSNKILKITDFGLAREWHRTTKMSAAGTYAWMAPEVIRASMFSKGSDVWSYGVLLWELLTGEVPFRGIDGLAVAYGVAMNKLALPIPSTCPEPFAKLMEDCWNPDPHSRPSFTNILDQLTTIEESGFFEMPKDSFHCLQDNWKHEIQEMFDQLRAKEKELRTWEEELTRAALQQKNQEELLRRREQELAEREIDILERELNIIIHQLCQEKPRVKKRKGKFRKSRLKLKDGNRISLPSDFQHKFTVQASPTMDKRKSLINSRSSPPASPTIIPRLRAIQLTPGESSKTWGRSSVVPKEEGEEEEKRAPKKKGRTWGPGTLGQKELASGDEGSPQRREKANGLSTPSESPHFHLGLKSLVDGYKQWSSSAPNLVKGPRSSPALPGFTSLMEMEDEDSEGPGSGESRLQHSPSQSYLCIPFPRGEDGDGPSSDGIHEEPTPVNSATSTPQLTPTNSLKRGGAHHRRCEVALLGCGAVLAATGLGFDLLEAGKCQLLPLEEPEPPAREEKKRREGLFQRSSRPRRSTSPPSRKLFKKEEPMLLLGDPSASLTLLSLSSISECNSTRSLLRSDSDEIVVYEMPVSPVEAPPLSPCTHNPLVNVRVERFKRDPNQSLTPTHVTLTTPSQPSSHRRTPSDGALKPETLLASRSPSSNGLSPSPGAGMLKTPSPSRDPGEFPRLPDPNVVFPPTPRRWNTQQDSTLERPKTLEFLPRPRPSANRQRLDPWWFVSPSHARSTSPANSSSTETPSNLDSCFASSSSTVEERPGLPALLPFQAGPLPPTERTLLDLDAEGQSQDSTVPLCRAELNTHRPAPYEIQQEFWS
Summary of the method: as §1

[7] = target: 140 purified human kinases (Homo sapiens, UniProt Q96SB4)
Chain of 140 purified human kinases (Homo sapiens, UniProt Q96SB4) (Q96SB4 whole entry): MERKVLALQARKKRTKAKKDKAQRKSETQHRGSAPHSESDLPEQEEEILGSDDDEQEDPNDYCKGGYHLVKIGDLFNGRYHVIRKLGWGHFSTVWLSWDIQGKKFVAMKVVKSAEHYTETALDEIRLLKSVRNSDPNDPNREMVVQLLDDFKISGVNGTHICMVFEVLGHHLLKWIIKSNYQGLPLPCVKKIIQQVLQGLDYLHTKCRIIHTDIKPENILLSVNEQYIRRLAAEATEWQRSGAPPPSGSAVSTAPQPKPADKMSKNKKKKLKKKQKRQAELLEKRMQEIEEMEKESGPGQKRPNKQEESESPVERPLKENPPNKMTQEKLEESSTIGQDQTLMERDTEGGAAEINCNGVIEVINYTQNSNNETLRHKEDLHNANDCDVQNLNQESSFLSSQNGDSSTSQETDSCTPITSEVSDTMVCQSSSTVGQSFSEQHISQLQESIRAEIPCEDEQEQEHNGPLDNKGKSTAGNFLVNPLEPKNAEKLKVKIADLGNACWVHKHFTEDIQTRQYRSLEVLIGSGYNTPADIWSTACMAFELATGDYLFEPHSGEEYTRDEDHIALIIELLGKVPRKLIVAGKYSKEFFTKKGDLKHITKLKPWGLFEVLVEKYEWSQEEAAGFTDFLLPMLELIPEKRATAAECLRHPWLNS
Summary of the method: as §1

SMILES: [Cu+2].[Cu+2].[Cu+2].c1ccc(-c2csc(NCCN(CCNc3nc(-c4ccccn4)cs3)CCNc3nc(-c4ccccn4)cs3)n2)nc1.c1ccc(-c2csc(NCCN(CCNc3nc(-c4ccccn4)cs3)CCNc3nc(-c4ccccn4)cs3)n2)nc1 [[L2Cu3]6+]
- % Inhibition Run 1 ([1]; SGK1): 85.6%
- % Inhibition Run 2 ([1]; SGK1): 88.5%
- % Inhibition, Mean ([1]; SGK1): 87%
- mean % activity ([1]; SGK1): 13%
- % activity ([1]; SGK1, Run 1): 14.4%
- % activity ([1]; SGK1, Run 2): 11.5%
- % Inhibition Run 1 ([2]; CHK1): 45.6%
- % Inhibition Run 2 ([2]; CHK1): 41.5%
- % Inhibition, Mean ([2]; CHK1): 44%
- mean % activity ([2]; CHK1): 56%
- % activity ([2]; CHK1, Run 1): 54.4%
- % activity ([2]; CHK1, Run 2): 58.5%
- % Inhibition Run 1 [3]: 92.1%
- % Inhibition Run 2 [3]: 92.5%
- % Inhibition, Mean [3]: 92%
- mean % activity [3]: 8%
- % activity ([3]; Run 1): 7.9%
- % activity ([3]; Run 2): 7.5%
- % Activity inhibition Mean [3]: 92.3%
- % Activity inhibition Run 1 [3]: 92.1%
- % Activity inhibition Run 2 [3]: 92.5%
- % Activity remaining Run 1 [3]: 7.90%
- % Activity remaining Run 2 [3]: 7.50%
- % Inhibition Run 1 ([4]; S6K1): 79%
- % Inhibition Run 2 ([4]; S6K1): 89.6%
- % Inhibition, Mean ([4]; S6K1): 84%
- mean % activity ([4]; S6K1): 16%
- % activity ([4]; S6K1, Run 1): 21%
- % activity ([4]; S6K1, Run 2): 10.4%
- % Inhibition Run 1 ([5]; RSK2): 87.4%
- % Inhibition Run 2 ([5]; RSK2): 87.7%
- % Inhibition, Mean ([5]; RSK2): 88%
- mean % activity ([5]; RSK2): 12%
- % activity ([5]; RSK2, Run 1): 12.6%
- % activity ([5]; RSK2, Run 2): 12.3%
- % Inhibition Run 1 ([6]; MLK1): 83.6%
- % Inhibition Run 2 ([6]; MLK1): 85.4%
- % Inhibition, Mean ([6]; MLK1): 85%
- mean % activity ([6]; MLK1): 16%
- % activity ([6]; MLK1, Run 1): 16.4%
- % activity ([6]; MLK1, Run 2): 14.6%
- % Inhibition Run 1 ([7]; SRPK1): 58.1%
- % Inhibition Run 2 ([7]; SRPK1): 50.4%
- % Inhibition, Mean ([7]; SRPK1): 54%
- mean % activity ([7]; SRPK1): 46%
- % activity ([7]; SRPK1, Run 1): 41.9%
- % activity ([7]; SRPK1, Run 2): 49.6%

SMILES: CC(=O)[O-].CC(=O)[O-].CC(=O)[O-].CC(=O)[O-].CC(=O)[O-].CC(=O)[O-].[Zn+2].[Zn+2].[Zn+2].c1ccc(-c2csc(NCCN(CCNc3nc(-c4ccccn4)cs3)CCNc3nc(-c4ccccn4)cs3)n2)nc1.c1ccc(-c2csc(NCCN(CCNc3nc(-c4ccccn4)cs3)CCNc3nc(-c4ccccn4)cs3)n2)nc1 [[L2Zn3]6+]
- % Inhibition, Mean ([1]; SGK1): 37%
- % Inhibition, Run 1 / Run 2 ([1]; SGK1): 43% and 32%
- mean % activity ([1]; SGK1): 63%
- % activity ([1]; SGK1, duplicate runs): 57% and 68%
- % Inhibition, Mean ([2]; CHK1): 17%
- % Inhibition, Run 1 / Run 2 ([2]; CHK1): 18% and 16%
- mean % activity ([2]; CHK1): 83%
- % activity ([2]; CHK1, duplicate runs): 82% and 84%
- % Inhibition, Mean [3]: 92%
- % Inhibition, Run 1 / Run 2 [3]: 94% and 90%
- mean % activity [3]: 8%
- % Activity inhibition Mean [3]: 92.0%
- % Activity inhibition Run 1 [3]: 94%
- % Activity inhibition Run 2 [3]: 90%
- % Activity remaining Run 1 [3]: 6%
- % Activity remaining Run 2 [3]: 10%
- % activity ([3]; duplicate runs): 6% and 10%
- % Inhibition, Mean ([4]; S6K1): 42%
- mean % activity ([4]; S6K1): 58%
- % activity ([4]; S6K1, duplicate runs): 43% and 74%
- % Inhibition, Mean ([5]; RSK2): 44%
- % Inhibition, Run 1 / Run 2 ([5]; RSK2): 50% and 39%
- mean % activity ([5]; RSK2): 56%
- % activity ([5]; RSK2, duplicate runs): 50% and 61%
- % Inhibition, Mean ([6]; MLK1): 11%
- mean % activity ([6]; MLK1): 89%
- % activity ([6]; MLK1, duplicate runs): 83% and 96%
- % Inhibition, Mean ([7]; SRPK1): 35%
- mean % activity ([7]; SRPK1): 66%
- % activity ([7]; SRPK1, duplicate runs): 53% and 78%
